Assay results: PMC5797143, “Epigenetic modulation of inflammation and synaptic plasticity promotes resilience against stress in mice” (Nature Communications, 2018)

Experiments:
[1] = system: IL-6; assay: In vivo dose finding: plasma IL-6 after LPS challenge; parameters: species or system mouse; settings: 50 µg to 50 mg/kg-BW/day in drinking water, 2 weeks; LPS 0.4 mg/kg-BW i.p.; 5 and 50 mg/kg most significant
Description: We then initiated dose response and safety studies in mice to determine testing dosages and safety of DHCA and Mal-gluc. C57BL/6 mice were treated with either DHCA (doses ranging from 50 µg to 50 mg/kg-BW/day) or Mal-gluc (doses ranging from 50 ng to 5 mg/kg-BW/day) for 2 weeks to simulate long-term administration. Mice treated with DHCA were challenged with intraperitoneal (i.p.) injection of 0.4 mg/kg-BW LPS and plasma levels of IL-6 were measured 6 h post injection. […] Following common discovery-stage practices, we measured the plasma levels of alkaline phosphatase (ALP), aspartate aminotransferase (AST), and alanine aminotransferase (ALT) for liver function and blood urea nitrogen (BUN) for renal function.
Male C57BL/6 J mice (8-week-old) were placed on a polyphenol-free AIN-93M diet and treated with various doses of DHCA (vehicle, 50 µg, 500 µg, 5 mg, and 50 mg/kg-BW/day), delivered through their drinking water for two weeks. Animals were then sacrificed and plasma was collected for routine biochemistry panel analysis including ALP, ALT, and AST for liver function and blood urea nitrogen (BUN) content for kidney function. A separate group of mice was similarly treated and challenged with an i.p. injection of 0.4 mg/kg body weight LPS and plasma was collected 6 h post injection for IL-6 analysis. […]

[2] = system: Rac1 promoter histone H3 acetylation / H3K27 trimethylation; assay: Quantitative ChIP along the Rac1 promoter in MSN-enriched primary cultures; format: cell-based, mouse
Source text: Stress-induced reduction of Rac1 expression is associated with a repressed chromatin state surrounding the promoter region of Rac1 in the NAc[11]. Since Mal-gluc can cross the BBB, we hypothesized that Mal-gluc may promote Rac1 expression, in part, by modulating chromatin acetylation. We first assessed the effect of Mal-gluc on HDACs that play key roles in chromatin deacetylation. […] Using site directed quantitative chromatin immunoprecipitation (qCHIP), we examined the permissive histone H3 acetylation (AcH3) in Mal-gluc treated MSN-enriched primary cultures.
Site-directed qChIP was performed for pan-acH3 and H3K27me3 as described previously with modification. Neurons were washed once with PBS and crosslinked in 1% formaldehyde for 15 min, quenched by glycine at a final concentration of 125 mM. Neurons were then rinsed with cold PBS containing protease inhibitor cocktail (Sigma) and scraped off the plate. Cells were resuspended and sonicated with a Bioruptor (15 cycles, 30 sec on/off), which produces chromatin fragments ~350 bp in length. […] Levels of specific histone modifications along the Rac1 promoter were determined by measuring the amount of acetylated or methylated histone-associated DNA using quantitative real-time PCR as previously described.

[3] = system: Rac1; assay: Rac1 expression in E18 MSN-enriched primary culture (screening, dose response); format: cell-based, mouse
Source text: BDPP contains a variety of polyphenols. Orally consumed polyphenols are typically bioavailable in various organs and tissues as metabolites (phase II polyphenol conjugates and phenolic acids) following xenobiotic metabolism and gastrointestinal microbiome fermentation. It is possible that some metabolites may counteract the positive effect of the others. Therefore, if supplied as BDPP, the overall benefits might be reduced due to potential ‘cancellation’ effects. By identifying individual metabolites that selectively target key pathological mechanisms (e.g., Rac1 and IL-6) we can greatly improve the efficacy. We and others recently identified 21 BDPP-derived phenolic metabolites that accumulate in blood and/or in the CNS (14 polyphenolic metabolites and 7 phenolic acids, Supplementary Table 1)[25], [28], [33], among which 14 are currently accessible, [34]. We initiated a high-throughput screen of these metabolites for their ability to modulate IL-6 and Rac1. […]
Total RNA from MSN-enriched cultures or brain NAc was isolated using the RNeasy Mini Kit (Qiagen, Valencia, CA, USA) and reverse transcribed. Gene expression was measured in four replicates by quantitative RT-PCR using Maxima SYBR Green master mix (Fermentas) in ABI Prism 7900HT. […]

[4] = Plasma protein binding, mouse plasma; format: in vitro ADME
Description: Compound stability in mouse and human plasma and in mouse brain homogenate were conducted, [45]. Specifically, Mal-gluc or DHCA was incubated in duplicate with plasma at 37 °C and samples were taken at various time points and mixed with three volumes of ice-cold Stop Solution (methanol containing propranolol, diclofenac, or other internal standard). Samples were centrifuged to remove precipitated protein, and the supernatants were analyzed by LC/MS/MS to quantitate for remaining test compound. Data are converted to percentage remaining by dividing by the time zero concentration value. Data are fit to a first-order decay model to determine half-life. Plasma protein binding were conducted using both mouse and human plasma.

| SMILES | plasma IL-6 6 h post LPS injection [1] | repressive trimethylation of the Rac1 promoter (H3K27) [2] | permissive histone H3 acetylation (AcH3) of Rac1 ([2]; compared to vehicle, across the region surveyed) | primary screening, Rac1 expression ([3]; 9 brain bioavailable metabolites screened) | EC50 ([3]; E18 MSN-enriched primary culture, 16 h, read-out: calculated EC50, increase of Rac1 expression) [nM] | Plasma protein binding, Mean fraction unbound (mouse plasma) [4] [%] |
| --- | --- | --- | --- | --- | --- | --- |
| O=C(O)CCc1ccc(O)c(O)c1 [DHCA, 3(3,4-dihydroxy-phenyl) propionic acid] | dose-dependent suppression of IL-6 |  |  |  |  |  |
| COc1cc(-c2[o+]c3cc(O)cc(O)c3cc2O[C@@H]2O[C@H](CO)[C@@H](O)[C@H](O)[C@H]2O)cc(OC)c1O [Mal-gluc] |  | no effect on the repressive trimethylation | significantly increased permissive acetylation | significantly increased Rac1 expression | 3.52 | 55.70 |
